Results taken from article PMC9037614 (RSC Advances, 2021).

How the values were obtained:
Test in all cases: cells
Type in all cases: cell-based
[1] = tested on: human non-small-cell lung cancer H460 cells; settings: NCI-H460, read-out: IC50 against H460
[2] = tested on: human non-small-cell lung cancer A549 cells; settings: A549, read-out: IC50 against A549
[3] = tested on: human bronchial epithelial cell line HBE; settings: for IC50: Homo sapiens, HBE, read-out: IC50 against HBE

| Compound | IC50 [1] [µM] | IC50 [2] [µM] | IC50 [3] [µM] | selectivity towards cancerous cell lines over non-cancerous cell line ([3]; A549/H460 versus HBE, from IC50 values) |
| --- | --- | --- | --- | --- |
| C=C1[C@H]2C[C@@]3([C@@H]1O)[C@@H](CC2=O)[C@]12[C@@H]4C[C@H]3[C@H]1N(CC)C[C@]4(C)CC[C@@H]2O [Compound 5, songorine] | 25.1 ± 0.59 | 21.2 ± 0.84 | 32.4 ± 2.62 | – |
| O=c1[nH]cc(F)c(=O)[nH]1 [Compound 5-FU, 5-fluorouracil, reference compound] | 6.16 ± 1.8 | 12.5 ± 8.81 | 8.93 ± 6.05 | – |
| CCN1C[C@]2(C)CC[C@H](O)[C@@]34C5C[C@@H]6[C@@H](OC)C[C@@](O)(C5[C@H]6O)[C@@H](CC23)C14 (stereo partly shown) [Compound 9, karacoline] | 9.69 ± 0.4 | 8.28 ± 0.41 | 49.7 ± 8.11 | higher selectivity |
| CCN1C[C@]2(COC)CC[C@H](O)[C@@]34C5C[C@@H]6[C@@H](OC)C[C@](O)(C(CC23)C14)C5[C@H]6OC(C)=O (stereo partly shown) [Compound 30, condelphine] | 16 ± 1.15 | 16.4 ± 2.38 | 31.4 ± 6 | – |
| COC[C@@]12CC[C@H](OC)[C@]34C(C([C@H](OC)[C@H]13)[C@]1(OC(C)=O)[C@H]3[C@@H](OC(=O)c5ccccc5)[C@](O)(C[C@H]34)[C@@H](OC)[C@@H]1O)N(C)C2 [Compound 33, hypaconitine] | 16.5 ± 2.22 | 14.3 ± 1.79 | 32.7 ± 4.56 | – |
| CCN1C[C@]2(COC)CC[C@H](OC)[C@]34C1C([C@H](OC)[C@H]23)[C@]1(OC(C)=O)[C@H]2[C@@H](OC(=O)c3ccccc3)[C@](O)(C[C@H]24)[C@@H](OC)[C@@H]1O [Compound 34, deoxyaconitine] | 14.6 ± 1.32 | 14.9 ± 4.02 | 31 ± 4.8 | – |
